Test system: NZB/W F1 female mice
Assay: Lupus nephrosis mouse model (proteinuria analysis)
Type: in vivo
Details: 25 mg/Kg IP three times per week for 8 weeks, from 25-week age
Experimental: FIGS. 17A-17B. Lupus Nephrosis Mouse Model: APT2 inhibitor ML349 decreases protein concentration in the mouse urine. (A) Protein concentration in urine (all data points), (B) Protein concentration in urine (averaged, with error bars). NZB/W F1 female mice at 25-week were administered via IP injection with either vehicle solution (DMSO+PBS) or APT2 inhibitor ML349 at 25 mg/Kg three times per week for 8 weeks. After 4 weeks of treatment, mice were evaluated for lupus incidence weekly through proteinuria analysis by collecting the urines and measuring the protein concentrations in the urine.
NZB/W F1 female mice at 25-week were administered via IP injection with either vehicle solution (DMSO+PBS) or APT2 inhibitor ML349 at 25 mg/Kg three times per week for 8 weeks. After 4 weeks of treatment, mice were evaluated for lupus incidence weekly through proteinuria analysis by collecting the urines and measuring the protein concentrations in the urine. […] This was the first time that the inventors did this experiment and after the experiment began, the inventors noticed that at 25 weeks, the disease phenotype was already very severe. It is expected that if the ML349 treatment is begun earlier, the effect might be more obvious and significant.

COc1ccc(N2CCN(C(=O)c3cc4c(s3)-c3ccccc3S(=O)(=O)C4)CC2)cc1 [ML349]
protein concentrations in the urine: decrease

Reference: patent US20230159931A1, “TARGETING THE PALMOTYLATION/DEPALMOTYLATION CYCLE TO TREAT INFLAMMATORY DISEASES” (CORNELL UNIVERSITY, priority 2020, published 2023)
